Reference: patent US10736932B2, “Small molecule Ras inhibitors” (Ohio State Innovation Foundation, priority 2014, dated 2020)
Square brackets hold non-standard residues; d marks the D form. Peptide text beside a SMILES is read from it. * marks the point of attachment. Lys(5-FITC)NH2 = NC(=O)[C@H](CCCCNC(=S)Nc1ccc2c(c1)C(=O)OC21c2ccc(O)cc2Oc2cc(O)ccc21)N*; FITC = O=C1OC2(c3ccc(O)cc3Oc3cc(O)ccc32)c2ccc(NC(=S)*)cc21; Phe(4-F) = N[C@@H](Cc1ccc(F)cc1)C(=O)O; d2Nal = N[C@H](Cc1ccc2ccccc2c1)C(=O)O; Benzoyl(3-Br) = O=C(c1cccc(Br)c1)*; Isonicotinoyl = O=C(c1ccncc1)*; Phg = N[C@H](C(=O)O)c1ccccc1; Tle = CC(C)(C)[C@H](N)C(=O)O; X2 = O=C(C=Cc1ccc(Cl)cc1)*; X5 = O=C(c1cc(F)cc(Br)c1)*; X4 = O=C(c1ccc(Cl)nc1)*; Dap = NC[C@H](N)C(=O)O; Bn = c1ccc(C*)cc1

Molecular target: T1, K-Ras(G12V) (Homo sapiens, UniProt P01116, G12V)
T1 construct: The G12V mutant K-Ras (amino acids 1-185) was recombinantly fused; GST (N, cleaved yes); made in house; host or cells: Escherichia coli BL21
T1 sequence (P01116 1-185 isoform P01116-2 G12V): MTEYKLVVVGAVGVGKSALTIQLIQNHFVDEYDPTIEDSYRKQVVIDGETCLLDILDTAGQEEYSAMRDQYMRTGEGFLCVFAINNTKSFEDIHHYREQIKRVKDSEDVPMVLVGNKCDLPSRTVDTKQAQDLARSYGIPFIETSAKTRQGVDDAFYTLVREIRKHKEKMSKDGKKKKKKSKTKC
Assay: Fluorescence anisotropy (FA) binding of FITC-labeled cyclic peptides to K-Ras
Details: Table 1; resynthesized FITC-labeled peptides, FA, K-Ras; read-out: KD
Procedure: The 13 hits were resynthesized, labeled with fluorescein isothiocyanate (FITC), purified by HPLC, and tested for binding to K-Ras by fluorescence anisotropy (FA).
For cyclic peptides derived from single library beads (library screening), K-Ras protein (non-GST fusion, 0-20 μM) was incubated with the TMR-labeled peptide (50 or 100 nM) in 20 μL of the blocking buffer for 2.5 h at 24° C. The FA values were measured on a Molecular Devices Spectramax M5 spectrofluorimeter, with excitation and emission wavelengths at 545 and 585 nm, respectively. Equilibrium dissociation constants (KD) were determined by plotting the FA values as a function of K-Ras concentration and fitting the data to the equation
[formula] where Y is the measured anisotropy at a given K-Ras concentration x; L is the peptide concentration; Qb/Qf is the correction fact for dye-protein interaction; Amax is the maximum anisotropy at saturating K-Ras concentration; and Amin is the minimum anisotropy. FA analyses with resynthesized FITC-labeled peptides were similarly carried out, except that the excitation and emission wavelengths were at 494 and 520 nm, respectively.

SMILES	Kd [nM]
CC(C)[C@H]1NC(=O)[C@H](Cc2ccc(F)cc2)NC(=O)[C@H](Cc2ccc(O)cc2)NC(=O)[C@H](CCCNC(=N)N)NC(=O)[C@H](Cc2ccc(F)cc2)NC(=O)[C@H](CCCNC(=N)N)NC(=O)[C@@H](Cc2ccc3ccccc3c2)NC(=O)[C@H](CCCNC(=N)N)NC(=O)[C@H](CCCNC(=N)N)NC(=O)[C@H](CCC(=O)N[C@@H](CCCCNC(=S)Nc2ccc3c(c2)C(=O)OC32c3ccc(O)cc3Oc3cc(O)ccc32)C(N)=O)NC1=O [Cyclorasin 1A, (Arg-Arg-nal-Arg-Fpa-Arg-Tyr-Fpa-val-Gln)] (cyclo(RR[d2Nal]R[Phe(4-F)]RY[Phe(4-F)][dV]E(Lys(5-FITC)NH2)))	> 10000
C[C@@H](O)[C@@H]1NC(=O)[C@H](Cc2ccc(O)cc2)NC(=O)[C@@H](CC(N)=O)NC(=O)[C@H](Cc2ccc(F)cc2)NC(=O)[C@H](CCCNC(=N)N)NC(=O)[C@@H](Cc2ccc3ccccc3c2)NC(=O)[C@H](CCCNC(=N)N)NC(=O)[C@H](CCCNC(=N)N)NC(=O)[C@H](CCC(=O)N[C@@H](CCCCNC(=S)Nc2ccc3c(c2)C(=O)OC32c3ccc(O)cc3Oc3cc(O)ccc32)C(N)=O)NC(=O)[C@@H](CC(N)=O)NC1=O [Cyclorasin 2A, (Arg-Arg-nal-Arg-Fpa-asn-Tyr-Thr-asn-Gln)] (cyclo(RR[d2Nal]R[Phe(4-F)][dN]YT[dN]E(Lys(5-FITC)NH2)))	> 10000
N=C(N)NCCC[C@@H]1NC(=O)[C@H](CCC(=O)N[C@@H](CCCCNC(=S)Nc2ccc3c(c2)C(=O)OC32c3ccc(O)cc3Oc3cc(O)ccc32)C(N)=O)NC(=O)[C@@H](Cc2ccccc2)NC(=O)[C@@H](CO)NC(=O)[C@H](Cc2ccc(O)cc2)NC(=O)[C@H](c2ccccc2)NC(=O)[C@H](Cc2ccc(F)cc2)NC(=O)[C@H](CCCNC(=N)N)NC(=O)[C@@H](Cc2ccc3ccccc3c2)NC(=O)[C@H](CCCNC(=N)N)NC1=O [Cyclorasin 8A, (Arg-Arg-nal-Arg-Fpa-Phg-Tyr-ser-phe-Gln)] (cyclo(RR[d2Nal]R[Phe(4-F)][Phg]Y[dS][dF]E(Lys(5-FITC)NH2)))	> 10000

Same assay, conditions: Table 2; FITC-labeled peptide; read-out: Binding affinity KD

SMILES	Kd [nM]
C[C@H]1NC(=O)[C@H](C(C)(C)C)NC(=O)[C@H](CNC(=O)c2cc(F)cc(Br)c2)NC(=O)[C@H](CCC(N)=O)NC(=O)[C@@H](CCCCN)NC(=O)[C@H](Cc2ccc(F)cc2)NC(=O)[C@H](CCCNC(=N)N)NC(=O)[C@@H](Cc2ccc3ccccc3c2)NC(=O)[C@H](CCCCNC(=S)Nc2ccc3c(c2)C(=O)OC32c3ccc(O)cc3Oc3cc(O)ccc32)NC(=O)[C@H](CCCNC(=N)N)NC(=O)[C@H](CCCNC(=N)N)NC1=O [Cyclorasin 9A25, (Dap(3-bromo-5-fluorobenzoyl)-Tle-ala-Arg-Arg-Lys(FITC)-nal-Arg-Fpa-lys-Gln)] (cyclo([Dap](X5)[Tle][dA]RRK(FITC)[d2Nal]R[Phe(4-F)][dK]Q))	470 ± 100
C[C@H]1NC(=O)[C@H](C(C)(C)C)NC(=O)[C@H]([C@@H](C)OCc2ccccc2)NC(=O)[C@H](CCC(N)=O)NC(=O)[C@@H](CCCCN)NC(=O)[C@H](Cc2ccc(F)cc2)NC(=O)[C@H](CCCNC(=N)N)NC(=O)[C@@H](Cc2ccc3ccccc3c2)NC(=O)[C@H](CCCCNC(=S)Nc2ccc3c(c2)C(=O)OC32c3ccc(O)cc3Oc3cc(O)ccc32)NC(=O)[C@H](CCCNC(=N)N)NC(=O)[C@H](CCCNC(=N)N)NC1=O [Cyclorasin 9A26, (Thr(Bzl)-Tle-ala-Arg-Arg-Lys(FITC)-nal-Arg-Fpa-lys-Gln)] (cyclo(K(FITC)[d2Nal]R[Phe(4-F)][dK]QT(Bn)[Tle][dA]RR))	710 ± 70
C[C@H]1NC(=O)[C@H](C(C)(C)C)NC(=O)[C@H](CNC(=O)c2ccc(Cl)nc2)NC(=O)[C@H](CCC(N)=O)NC(=O)[C@@H](CCCCN)NC(=O)[C@H](Cc2ccc(F)cc2)NC(=O)[C@H](CCCNC(=N)N)NC(=O)[C@@H](Cc2ccc3ccccc3c2)NC(=O)[C@H](CCCCNC(=S)Nc2ccc3c(c2)C(=O)OC32c3ccc(O)cc3Oc3cc(O)ccc32)NC(=O)[C@H](CCCNC(=N)N)NC(=O)[C@H](CCCNC(=N)N)NC1=O [Cyclorasin 9A27, (Dap(6-chloronicotinoyl)-Tle-ala-Arg-Arg-Lys(FITC)-nal-Arg-Fpa-lys-Gln)] (cyclo([Dap](X4)[Tle][dA]RRK(FITC)[d2Nal]R[Phe(4-F)][dK]Q))	1000 ± 100
C[C@H]1NC(=O)[C@H](C(C)(C)C)NC(=O)[C@H](CNC(=O)C=Cc2ccc(Cl)cc2)NC(=O)[C@H](CCC(N)=O)NC(=O)[C@@H](CCCCN)NC(=O)[C@H](Cc2ccc(F)cc2)NC(=O)[C@H](CCCNC(=N)N)NC(=O)[C@@H](Cc2ccc3ccccc3c2)NC(=O)[C@H](CCCCNC(=S)Nc2ccc3c(c2)C(=O)OC32c3ccc(O)cc3Oc3cc(O)ccc32)NC(=O)[C@H](CCCNC(=N)N)NC(=O)[C@H](CCCNC(=N)N)NC1=O [Cyclorasin 9A28, (Dap(4-chlorocinnamoyl)-Tle-ala-Arg-Arg-Lys(FITC)-nal-Arg-Fpa-lys-Gln)] (cyclo([Dap](X2)[Tle][dA]RRK(FITC)[d2Nal]R[Phe(4-F)][dK]Q))	160 ± 20
C[C@H]1NC(=O)[C@H](C(C)(C)C)NC(=O)[C@H](CNC(=O)c2ccncc2)NC(=O)[C@H](CCC(N)=O)NC(=O)[C@@H](CCCCN)NC(=O)[C@H](Cc2ccc(F)cc2)NC(=O)[C@H](CCCNC(=N)N)NC(=O)[C@@H](Cc2ccc3ccccc3c2)NC(=O)[C@H](CCCCNC(=S)Nc2ccc3c(c2)C(=O)OC32c3ccc(O)cc3Oc3cc(O)ccc32)NC(=O)[C@H](CCCNC(=N)N)NC(=O)[C@H](CCCNC(=N)N)NC1=O [Cyclorasin 9A29, (Dap(isonicotinoyl)-Tle-ala-Arg-Arg-Lys(FITC)-nal-Arg-Fpa-lys-Gln)] (cyclo([Dap](Isonicotinoyl)[Tle][dA]RRK(FITC)[d2Nal]R[Phe(4-F)][dK]Q))	1200 ± 100
C[C@H]1NC(=O)[C@H](C(C)(C)C)NC(=O)[C@H](CNC(=O)c2cccc(Br)c2)NC(=O)[C@H](CCC(N)=O)NC(=O)[C@@H](CCCCN)NC(=O)[C@H](Cc2ccc(F)cc2)NC(=O)[C@H](CCCNC(=N)N)NC(=O)[C@@H](Cc2ccc3ccccc3c2)NC(=O)[C@H](CCCCNC(=S)Nc2ccc3c(c2)C(=O)OC32c3ccc(O)cc3Oc3cc(O)ccc32)NC(=O)[C@H](CCCNC(=N)N)NC(=O)[C@H](CCCNC(=N)N)NC1=O [Cyclorasin 9A30, (Dap(3-bromobenzoyl)-Tle-ala-Arg-Arg-Lys(FITC)-nal-Arg-Fpa-lys-Gln)] (cyclo([Dap](Benzoyl(3-Br))[Tle][dA]RRK(FITC)[d2Nal]R[Phe(4-F)][dK]Q))	640 ± 70
C[C@H]1NC(=O)[C@H](C(C)(C)C)NC(=O)[C@H](Cc2c[nH]c3ccccc23)NC(=O)[C@H](CCC(N)=O)NC(=O)[C@@H](CCCCN)NC(=O)[C@H](Cc2ccc(F)cc2)NC(=O)[C@H](CCCNC(=N)N)NC(=O)[C@@H](Cc2ccc3ccccc3c2)NC(=O)[C@H](CCCCNC(=S)Nc2ccc3c(c2)C(=O)OC32c3ccc(O)cc3Oc3cc(O)ccc32)NC(=O)[C@H](CCCNC(=N)N)NC(=O)[C@H](CCCNC(=N)N)NC1=O [Cyclorasin 9A31, (Trp-Tle-ala-Arg-Arg-Lys(FITC)-nal-Arg-Fpa-lys-Gln)] (cyclo(K(FITC)[d2Nal]R[Phe(4-F)][dK]QW[Tle][dA]RR))	110 ± 10
C[C@H]1NC(=O)[C@H](C(C)(C)C)NC(=O)[C@H](Cc2c[nH]c3ccccc23)NC(=O)[C@H](CCC(N)=O)NC(=O)[C@@H](CCCCNC(=O)c2cc(F)cc(Br)c2)NC(=O)[C@H](Cc2ccc(F)cc2)NC(=O)[C@H](CCCNC(=N)N)NC(=O)[C@@H](Cc2ccc3ccccc3c2)NC(=O)[C@H](CCCCNC(=S)Nc2ccc3c(c2)C(=O)OC32c3ccc(O)cc3Oc3cc(O)ccc32)NC(=O)[C@H](CCCNC(=N)N)NC(=O)[C@H](CCCNC(=N)N)NC1=O [Cyclorasin 9A32, (Trp-Tle-ala-Arg-Arg-Lys(FITC)-nal-Arg-Fpa-lys(3-bromo-5-fluorobenzoyl)-Gln)] (cyclo(K(FITC)[d2Nal]R[Phe(4-F)][dK](X5)QW[Tle][dA]RR))	> 20000
C[C@H]1NC(=O)[C@H](C(C)(C)C)NC(=O)[C@H](Cc2c[nH]c3ccccc23)NC(=O)[C@H](CCC(N)=O)NC(=O)[C@@H](CCCCNC(=O)c2ccc(Cl)nc2)NC(=O)[C@H](Cc2ccc(F)cc2)NC(=O)[C@H](CCCNC(=N)N)NC(=O)[C@@H](Cc2ccc3ccccc3c2)NC(=O)[C@H](CCCCNC(=S)Nc2ccc3c(c2)C(=O)OC32c3ccc(O)cc3Oc3cc(O)ccc32)NC(=O)[C@H](CCCNC(=N)N)NC(=O)[C@H](CCCNC(=N)N)NC1=O [Cyclorasin 9A33, (Trp-Tle-ala-Arg-Arg-Lys(FITC)-nal-Arg-Fpa-lys(6-chloronicotinoyl)-Gln)] (cyclo(K(FITC)[d2Nal]R[Phe(4-F)][dK](X4)QW[Tle][dA]RR))	> 20000
C[C@H]1NC(=O)[C@H](C(C)(C)C)NC(=O)[C@H](Cc2c[nH]c3ccccc23)NC(=O)[C@H](CCC(N)=O)NC(=O)[C@@H](CCCCNC(=O)C=Cc2ccc(Cl)cc2)NC(=O)[C@H](Cc2ccc(F)cc2)NC(=O)[C@H](CCCNC(=N)N)NC(=O)[C@@H](Cc2ccc3ccccc3c2)NC(=O)[C@H](CCCCNC(=S)Nc2ccc3c(c2)C(=O)OC32c3ccc(O)cc3Oc3cc(O)ccc32)NC(=O)[C@H](CCCNC(=N)N)NC(=O)[C@H](CCCNC(=N)N)NC1=O [Cyclorasin 9A34, (Trp-Tle-ala-Arg-Arg-Lys(FITC)-nal-Arg-Fpa-lys(4-chlorocinnamoyl)-Gln)] (cyclo(K(FITC)[d2Nal]R[Phe(4-F)][dK](X2)QW[Tle][dA]RR))	> 20000
C[C@H]1NC(=O)[C@H](C(C)(C)C)NC(=O)[C@H](Cc2c[nH]c3ccccc23)NC(=O)[C@H](CCC(N)=O)NC(=O)[C@@H](CCCCNC(=O)c2ccncc2)NC(=O)[C@H](Cc2ccc(F)cc2)NC(=O)[C@H](CCCNC(=N)N)NC(=O)[C@@H](Cc2ccc3ccccc3c2)NC(=O)[C@H](CCCCNC(=S)Nc2ccc3c(c2)C(=O)OC32c3ccc(O)cc3Oc3cc(O)ccc32)NC(=O)[C@H](CCCNC(=N)N)NC(=O)[C@H](CCCNC(=N)N)NC1=O [Cyclorasin 9A35, (Trp-Tle-ala-Arg-Arg-Lys(FITC)-nal-Arg-Fpa-lys(isonicotinoyl)-Gln)] (cyclo(W[Tle][dA]RRK(FITC)[d2Nal]R[Phe(4-F)][dK](Isonicotinoyl)Q))	> 20000
